Reference: patent publication US9751926B2 (priority 2013, dated 2017)
Non-standard residues stand in square brackets, D forms with d. Residues, ends and D or L forms follow the SMILES beside them. Met(O2) = CS(=O)(=O)CC[C@H](N)C(=O)O; Aib = CC(C)(N)C(=O)O

Experiments:
human GLP-1 receptor = target: T1, human GLP-1 receptor (Homo sapiens, UniProt P43220); assay: cAMP response (HTRF) of HEK-293 cells stably expressing human GLP-1 receptor; assay type: cell-based; details: Table 6; formed cAMP; read-out: EC50 hGLP-1 R
T1 construct: expressed in transfected cells
Procedure: (§1) cAMP content of cells was determined using a kit from Cisbio Corp. (cat. no. 62AM4PEC) based on HTRF (Homogenous Time Resolved Fluorescence). For preparation, cells were split into T175 culture flasks and grown overnight to near confluency in medium (DMEM/10% FBS). Medium was then removed and cells washed with PBS lacking calcium and magnesium, followed by proteinase treatment with accutase (Sigma-Aldrich cat. no. A6964). Detached cells were washed and resuspended in assay buffer (1×HBSS; 20 mM HEPES, 0.1% BSA, 2 mM IBMX) and cellular density determined. They were then diluted to 400000 cells/ml and 25 μl-aliquots dispensed into the wells of 96-well plates. For measurement, 25 μl of test compound in assay buffer was added to the wells, followed by incubation for 30 minutes at room temperature.

human glucagon receptor = target: T2, human glucagon receptor (Homo sapiens, UniProt P47871); assay: cAMP response (HTRF) of HEK-293 cells stably expressing human glucagon receptor; assay type: cell-based; details: Table 6; formed cAMP; read-out: EC50 hGLUC R
T2 construct: expressed in transfected cells
Procedure: as §1

physchem = assay type: physicochemical

T1 sequence (P43220 24-463): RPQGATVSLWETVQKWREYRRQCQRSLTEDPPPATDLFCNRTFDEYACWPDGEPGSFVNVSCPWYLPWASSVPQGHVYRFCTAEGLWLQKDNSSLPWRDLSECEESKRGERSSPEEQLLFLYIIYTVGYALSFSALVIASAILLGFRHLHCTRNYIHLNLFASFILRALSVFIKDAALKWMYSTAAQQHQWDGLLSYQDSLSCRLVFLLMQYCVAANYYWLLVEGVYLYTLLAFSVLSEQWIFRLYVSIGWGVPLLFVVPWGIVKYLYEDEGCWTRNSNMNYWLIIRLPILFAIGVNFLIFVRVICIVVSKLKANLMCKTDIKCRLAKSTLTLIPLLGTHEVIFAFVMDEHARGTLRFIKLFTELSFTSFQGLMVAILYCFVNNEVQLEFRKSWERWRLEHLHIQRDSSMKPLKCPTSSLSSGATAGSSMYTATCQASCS
T2 sequence (P47871 26-477): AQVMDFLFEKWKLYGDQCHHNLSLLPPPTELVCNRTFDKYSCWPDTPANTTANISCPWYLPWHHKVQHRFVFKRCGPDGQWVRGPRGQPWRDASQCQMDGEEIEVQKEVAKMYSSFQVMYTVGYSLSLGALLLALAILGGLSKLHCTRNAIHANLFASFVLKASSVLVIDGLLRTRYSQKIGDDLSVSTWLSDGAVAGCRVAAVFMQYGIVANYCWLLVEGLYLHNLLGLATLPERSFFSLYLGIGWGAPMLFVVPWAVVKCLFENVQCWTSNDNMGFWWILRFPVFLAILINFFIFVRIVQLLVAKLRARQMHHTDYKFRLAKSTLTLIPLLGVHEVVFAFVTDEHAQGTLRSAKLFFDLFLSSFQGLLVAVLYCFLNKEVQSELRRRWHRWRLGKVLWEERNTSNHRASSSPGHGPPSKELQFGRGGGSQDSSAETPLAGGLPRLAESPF

SMILES	EC50 (human GLP-1 receptor)	EC50 (human glucagon receptor)	solubility at 2 h (physchem; pH 4.5)	solubility at 2 h (physchem; pH 7.4)
CC[C@H](C)[C@H](NC(=O)[C@H](CO)NC(=O)[C@H](CC(C)C)NC(=O)[C@H](CC(=O)O)NC(=O)[C@H](CO)NC(=O)[C@@H](NC(=O)[C@H](Cc1ccccc1)NC(=O)[C@@H](NC(=O)CNC(=O)[C@H](CCC(=O)O)NC(=O)C(C)(C)NC(=O)[C@@H](N)Cc1ccc(O)cc1)[C@@H](C)O)[C@@H](C)O)C(=O)N[C@@H](CCC(N)=O)C(=O)N[C@@H](CCSC)C(=O)N[C@@H](CCC(=O)O)C(=O)N[C@@H](CCCCN)C(=O)N[C@@H](CCC(=O)O)C(=O)N[C@@H](C)C(=O)N[C@H](C(=O)N[C@@H](CCCNC(=N)N)C(=O)N[C@@H](CC(C)C)C(=O)N[C@@H](Cc1ccccc1)C(=O)N[C@H](C(=O)N[C@@H](CCC(=O)O)C(=O)N[C@@H](Cc1c[nH]c2ccccc12)C(=O)N[C@@H](CC(C)C)C(=O)N[C@@H](CCCCN)C(=O)N[C@@H](C)C(=O)NCC(=O)NCC(=O)N1CCC[C@H]1C(=O)N[C@@H](CO)C(=O)N[C@@H](CO)C(=O)NCC(=O)N[C@@H](C)C(=O)N1CCC[C@H]1C(=O)N1CCC[C@H]1C(=O)N1CCC[C@H]1C(=O)N[C@@H](CO)C(N)=O)[C@@H](C)CC)C(C)C [compound 9] (H-Y[Aib]EGTFTSDLSIQMEKEAVRLFIEWLKAGGPSSGAPPPS-NH2)	0.0011 nM	> 1000 nM	–	–
CC[C@H](C)[C@H](NC(=O)[C@H](CO)NC(=O)[C@H](CC(C)C)NC(=O)[C@H](CC(=O)O)NC(=O)[C@H](CO)NC(=O)[C@@H](NC(=O)[C@H](Cc1ccccc1)NC(=O)[C@@H](NC(=O)CNC(=O)[C@H](CCC(=O)O)NC(=O)C(C)(C)NC(=O)[C@@H](N)Cc1ccc(O)cc1)[C@@H](C)O)[C@@H](C)O)C(=O)N[C@@H](CCC(N)=O)C(=O)N[C@@H](CC(C)C)C(=O)N[C@@H](CCC(=O)O)C(=O)N[C@@H](CCCCN)C(=O)N[C@@H](CCC(=O)O)C(=O)N[C@@H](C)C(=O)N[C@H](C(=O)N[C@@H](CCCNC(=N)N)C(=O)N[C@@H](CC(C)C)C(=O)N[C@@H](Cc1ccccc1)C(=O)N[C@H](C(=O)N[C@@H](CCC(=O)O)C(=O)N[C@@H](Cc1c[nH]c2ccccc12)C(=O)N[C@@H](CC(C)C)C(=O)N[C@@H](CCCCN)C(=O)N[C@@H](C)C(=O)NCC(=O)NCC(=O)N1CCC[C@H]1C(=O)N[C@@H](CO)C(=O)N[C@@H](CO)C(=O)NCC(=O)N[C@@H](C)C(=O)N1CCC[C@H]1C(=O)N1CCC[C@H]1C(=O)N1CCC[C@H]1C(=O)N[C@@H](CO)C(N)=O)[C@@H](C)CC)C(C)C [compound 10]	0.0012 nM	–	–	–
CC[C@H](C)[C@H](NC(=O)[C@H](CO)NC(=O)[C@H](CC(C)C)NC(=O)[C@H](CC(=O)O)NC(=O)[C@H](CO)NC(=O)[C@@H](NC(=O)[C@H](Cc1ccccc1)NC(=O)[C@@H](NC(=O)CNC(=O)[C@H](CCC(=O)O)NC(=O)C(C)(C)NC(=O)[C@@H](N)Cc1ccc(O)cc1)[C@@H](C)O)[C@@H](C)O)C(=O)N[C@@H](CCC(N)=O)C(=O)N[C@@H](CC[S+](C)[O-])C(=O)N[C@@H](CCC(=O)O)C(=O)N[C@@H](CCCCN)C(=O)N[C@@H](CCC(=O)O)C(=O)N[C@@H](C)C(=O)N[C@H](C(=O)N[C@@H](CCCNC(=N)N)C(=O)N[C@@H](CC(C)C)C(=O)N[C@@H](Cc1ccccc1)C(=O)N[C@H](C(=O)N[C@@H](CCC(=O)O)C(=O)N[C@@H](Cc1c[nH]c2ccccc12)C(=O)N[C@@H](CC(C)C)C(=O)N[C@@H](CCCCN)C(=O)N[C@@H](C)C(=O)NCC(=O)NCC(=O)N1CCC[C@H]1C(=O)N[C@@H](CO)C(=O)N[C@@H](CO)C(=O)NCC(=O)N[C@@H](C)C(=O)N1CCC[C@H]1C(=O)N1CCC[C@H]1C(=O)N1CCC[C@H]1C(=O)N[C@@H](CO)C(N)=O)[C@@H](C)CC)C(C)C (stereo partly shown) [compound 13]	–	> 1000 nM	–	–
CC[C@H](C)[C@H](NC(=O)[C@H](CO)NC(=O)[C@H](CC(C)C)NC(=O)[C@H](CC(=O)O)NC(=O)[C@H](CO)NC(=O)[C@@H](NC(=O)[C@H](Cc1ccccc1)NC(=O)[C@@H](NC(=O)CNC(=O)[C@H](CCC(=O)O)NC(=O)C(C)(C)NC(=O)[C@@H](N)Cc1ccc(O)cc1)[C@@H](C)O)[C@@H](C)O)C(=O)N[C@@H](CCC(N)=O)C(=O)N[C@@H](CCS(C)(=O)=O)C(=O)N[C@@H](CCC(=O)O)C(=O)N[C@@H](CCCCN)C(=O)N[C@@H](CCC(=O)O)C(=O)N[C@@H](C)C(=O)N[C@H](C(=O)N[C@@H](CCCNC(=N)N)C(=O)N[C@@H](CC(C)C)C(=O)N[C@@H](Cc1ccccc1)C(=O)N[C@H](C(=O)N[C@@H](CCC(=O)O)C(=O)N[C@@H](Cc1c[nH]c2ccccc12)C(=O)N[C@@H](CC(C)C)C(=O)N[C@@H](CCCCN)C(=O)N[C@@H](C)C(=O)NCC(=O)NCC(=O)N1CCC[C@H]1C(=O)N[C@@H](CO)C(=O)N[C@@H](CO)C(=O)NCC(=O)N[C@@H](C)C(=O)N1CCC[C@H]1C(=O)N1CCC[C@H]1C(=O)N1CCC[C@H]1C(=O)N[C@@H](CO)C(N)=O)[C@@H](C)CC)C(C)C [compound 14] (H-Y[Aib]EGTFTSDLSIQ[Met(O2)]EKEAVRLFIEWLKAGGPSSGAPPPS-NH2)	–	> 1000 nM	> 1000 µg/mL	> 1000 µg/mL
CC[C@H](C)[C@H](NC(=O)[C@H](CO)NC(=O)[C@H](CC(C)C)NC(=O)[C@H](CC(=O)O)NC(=O)[C@H](CO)NC(=O)[C@@H](NC(=O)[C@H](Cc1ccccc1)NC(=O)[C@@H](NC(=O)CNC(=O)[C@H](CCC(=O)O)NC(=O)C(C)(C)NC(=O)[C@@H](N)Cc1ccc(O)cc1)[C@@H](C)O)[C@@H](C)O)C(=O)N[C@@H](CCC(N)=O)C(=O)N[C@@H](CC(C)C)C(=O)N[C@@H](CCC(=O)O)C(=O)N[C@@H](CCC(=O)O)C(=O)N[C@@H](CCC(=O)O)C(=O)N[C@@H](C)C(=O)N[C@H](C(=O)N[C@@H](CCCNC(=N)N)C(=O)N[C@@H](CC(C)C)C(=O)N[C@@H](Cc1ccccc1)C(=O)N[C@H](C(=O)N[C@@H](CCC(=O)O)C(=O)N[C@@H](Cc1c[nH]c2ccccc12)C(=O)N[C@@H](CC(C)C)C(=O)N[C@@H](CCCCN)C(=O)N[C@@H](C)C(=O)NCC(=O)NCC(=O)N1CCC[C@H]1C(=O)N[C@@H](CO)C(=O)N[C@@H](CO)C(=O)NCC(=O)N[C@@H](C)C(=O)N1CCC[C@H]1C(=O)N1CCC[C@H]1C(=O)N1CCC[C@H]1C(=O)N[C@@H](CO)C(N)=O)[C@@H](C)CC)C(C)C [compound 15] (H-Y[Aib]EGTFTSDLSIQLEEEAVRLFIEWLKAGGPSSGAPPPS-NH2)	–	> 1000 nM	–	–
CC[C@H](C)[C@H](NC(=O)[C@H](CO)NC(=O)[C@H](CC(C)C)NC(=O)[C@H](CC(=O)O)NC(=O)[C@H](CO)NC(=O)[C@@H](NC(=O)[C@H](Cc1ccccc1)NC(=O)[C@@H](NC(=O)CNC(=O)[C@H](CCC(=O)O)NC(=O)C(C)(C)NC(=O)[C@@H](N)Cc1ccc(O)cc1)[C@@H](C)O)[C@@H](C)O)C(=O)N[C@@H](CCC(N)=O)C(=O)N[C@@H](CC(C)C)C(=O)N[C@@H](CCC(=O)O)C(=O)N[C@@H](CCC(=O)O)C(=O)N[C@@H](CCC(=O)O)C(=O)N[C@@H](C)C(=O)N[C@H](C(=O)NC(C)(C)C(=O)N[C@@H](CC(C)C)C(=O)N[C@@H](Cc1ccccc1)C(=O)N[C@H](C(=O)N[C@@H](CCC(=O)O)C(=O)N[C@@H](Cc1c[nH]c2ccccc12)C(=O)N[C@@H](CC(C)C)C(=O)N[C@@H](CCCCN)C(=O)N[C@@H](C)C(=O)NCC(=O)NCC(=O)N1CCC[C@H]1C(=O)N[C@@H](CO)C(=O)N[C@@H](CO)C(=O)NCC(=O)N[C@@H](C)C(=O)N1CCC[C@H]1C(=O)N1CCC[C@H]1C(=O)N1CCC[C@H]1C(=O)N[C@@H](CO)C(N)=O)[C@@H](C)CC)C(C)C [compound 16]	0.001 nM	> 1000 nM	–	–
CC[C@H](C)[C@H](NC(=O)[C@H](CO)NC(=O)[C@H](CC(C)C)NC(=O)[C@H](CC(=O)O)NC(=O)[C@H](CO)NC(=O)[C@@H](NC(=O)[C@H](Cc1ccccc1)NC(=O)[C@@H](NC(=O)CNC(=O)[C@H](CCC(=O)O)NC(=O)C(C)(C)NC(=O)[C@@H](N)Cc1ccc(O)cc1)[C@@H](C)O)[C@@H](C)O)C(=O)N[C@@H](CCC(N)=O)C(=O)N[C@@H](CC(C)C)C(=O)N[C@@H](CCC(=O)O)C(=O)N[C@@H](CCC(=O)O)C(=O)N[C@@H](CCC(=O)O)C(=O)N[C@@H](C)C(=O)N[C@H](C(=O)N[C@@](C)(CCCCN)C(=O)N[C@@H](CC(C)C)C(=O)N[C@@H](Cc1ccccc1)C(=O)N[C@H](C(=O)N[C@@H](CCC(=O)O)C(=O)N[C@@H](Cc1c[nH]c2ccccc12)C(=O)N[C@@H](CC(C)C)C(=O)N[C@@H](CCCCN)C(=O)N[C@@H](C)C(=O)NCC(=O)NCC(=O)N1CCC[C@H]1C(=O)N[C@@H](CO)C(=O)N[C@@H](CO)C(=O)NCC(=O)N[C@@H](C)C(=O)N1CCC[C@H]1C(=O)N1CCC[C@H]1C(=O)N1CCC[C@H]1C(=O)N[C@@H](CO)C(N)=O)[C@@H](C)CC)C(C)C [compound 17]	0.0011 nM	> 1000 nM	–	–
CC[C@H](C)[C@H](NC(=O)[C@H](CO)NC(=O)[C@H](CC(C)C)NC(=O)[C@H](CC(=O)O)NC(=O)[C@H](CO)NC(=O)[C@@H](NC(=O)[C@H](Cc1ccccc1)NC(=O)[C@@H](NC(=O)CNC(=O)[C@H](CCC(=O)O)NC(=O)C(C)(C)NC(=O)[C@@H](N)Cc1ccc(O)cc1)[C@@H](C)O)[C@@H](C)O)C(=O)N[C@@H](CCC(N)=O)C(=O)N[C@@H](CC(C)C)C(=O)N[C@@H](CCC(=O)O)C(=O)N[C@@H](CCC(=O)O)C(=O)N[C@@H](CCC(=O)O)C(=O)N[C@@H](C)C(=O)N[C@H](C(=O)N[C@](C)(CCCCN)C(=O)N[C@@H](CC(C)C)C(=O)N[C@@H](Cc1ccccc1)C(=O)N[C@H](C(=O)N[C@@H](CCC(=O)O)C(=O)N[C@@H](Cc1c[nH]c2ccccc12)C(=O)N[C@@H](CC(C)C)C(=O)N[C@@H](CCCCN)C(=O)N[C@@H](C)C(=O)NCC(=O)NCC(=O)N1CCC[C@H]1C(=O)N[C@@H](CO)C(=O)N[C@@H](CO)C(=O)NCC(=O)N[C@@H](C)C(=O)N1CCC[C@H]1C(=O)N1CCC[C@H]1C(=O)N1CCC[C@H]1C(=O)N[C@@H](CO)C(N)=O)[C@@H](C)CC)C(C)C [compound 18]	–	> 1000 nM	–	–
